Structures can show the parent of a compound that is named as a salt. Where two headings read alike, the source gives them in different places.
Assays:
Experiment in all cases: AK assay 384-well format, Prestwick library screening
[1] = tested on: A. baumannii strain 98-37-09; assay type: cell-based, Acinetobacter baumannii; settings: 50 μM final drug concentration; for fold induction at 50 µM: Acinetobacter baumannii, 983709, 3 h
E. coli = assay type: cell-based, Escherichia coli; settings: 50 μM final drug concentration; for fold induction at 50 µM: Escherichia coli, 3 h
P. aeruginosa = assay type: cell-based, Pseudomonas aeruginosa; settings: 50 μM final drug concentration; for fold induction at 50 µM: Pseudomonas aeruginosa, 3 h
K. pneumoniae = assay type: cell-based, Klebsiella pneumoniae; settings: 50 μM final drug concentration; for fold induction at 50 µM: Klebsiella pneumoniae, 3 h
[2] = tested on: S. aureus strain USA300-0114; assay type: cell-based, Staphylococcus aureus; settings: 50 μM final drug concentration; for fold induction at 50 µM: Staphylococcus aureus, USA300, 3 h
E. faecium = assay type: cell-based, Enterococcus faecium; settings: 50 μM final drug concentration; for fold induction at 50 µM: Enterococcus faecium, 3 h
E. cloacae = assay type: cell-based, Enterobacter cloacae; settings: 50 μM final drug concentration; for fold induction at 50 µM: Enterobacter cloacae, 3 h
[3] = planktonic, cutoff for positive-scoring molecules 3-fold increase

Cc1[nH]c(=O)c(C#N)cc1-c1ccncc1 [Milrinone] was tested, and the fold induction at 50 µM ([1]; planktonic A. baumannii, positive cutoff 3-fold increase, read-out: AK-based Prestwick library screening result, A. baumannii (fold increase in extracellular AK activity)) was 0.8, the fold induction at 50 µM (E. coli; planktonic E. coli, positive cutoff 3-fold increase, read-out: AK-based Prestwick library screening result, E. coli (fold increase in extracellular AK activity)) was 0.8 and the fold induction at 50 µM (P. aeruginosa; planktonic P. aeruginosa, positive cutoff 3-fold increase, read-out: AK-based Prestwick library screening result, P. aeruginosa (fold increase in extracellular AK activity)) was 0.9. It also gave a fold induction at 50 µM (K. pneumoniae; planktonic K. pneumoniae, positive cutoff 3-fold increase, read-out: AK-based Prestwick library screening result, K. pneumoniae (fold increase in extracellular AK activity)) of 0.8, a fold induction at 50 µM ([2]; planktonic S. aureus, positive cutoff 3-fold increase, read-out: AK-based Prestwick library screening result, S. aureus (fold increase in extracellular AK activity)) of 0.7 and a fold induction at 50 µM (E. faecium; planktonic E. faecium, positive cutoff 3-fold increase, read-out: AK-based Prestwick library screening result, E. faecium (fold increase in extracellular AK activity)) of 0.9. It also gave a fold induction at 50 µM (E. cloacae; planktonic E. cloacae, positive cutoff 3-fold increase, read-out: AK-based Prestwick library screening result, E. cloacae (fold increase in extracellular AK activity)) of 0.9.
CCN(CC)CCOC(=O)C(Cc1cccc2ccccc12)CC1CCCO1 (centres unmarked) [Nafronyl oxalate] showed a fold induction at 50 µM ([1]; planktonic, cutoff for positive 3-fold increase, read-out: AK-based Prestwick Library Screening Results, A. baumannii (fold increase in extracellular AK activity)) of 1, a fold induction at 50 µM (E. coli; planktonic, cutoff for positive 3-fold increase, read-out: AK-based Prestwick Library Screening Results, E. coli (fold increase in extracellular AK activity)) of 1 and a fold induction at 50 µM (P. aeruginosa; planktonic, cutoff for positive 3-fold increase, read-out: AK-based Prestwick Library Screening Results, P. aeruginosa (fold increase in extracellular AK activity)) of 1.1. It also gave a fold induction at 50 µM (K. pneumoniae; planktonic, cutoff for positive 3-fold increase, read-out: AK-based Prestwick Library Screening Results, K. pneumoniae (fold increase in extracellular AK activity)) of 1, a fold induction at 50 µM ([2]; planktonic, cutoff for positive 3-fold increase, read-out: AK-based Prestwick Library Screening Results, S. aureus (fold increase in extracellular AK activity)) of 0.9 and a fold induction at 50 µM (E. faecium; planktonic, cutoff for positive 3-fold increase, read-out: AK-based Prestwick Library Screening Results, E. faecium (fold increase in extracellular AK activity)) of 1. For the same compound, the fold induction at 50 µM (E. cloacae; planktonic, cutoff for positive 3-fold increase, read-out: AK-based Prestwick Library Screening Results, E. cloacae (fold increase in extracellular AK activity)) was 1.4.
With CC#C[C@]1(O)CC[C@H]2[C@@H]3CCC4=CC(=O)CCC4=C3[C@@H](c3ccc(N(C)C)cc3)C[C@@]21C [Mifepristone] the fold induction at 50 µM ([1]; planktonic A. baumannii, 384-well, cutoff for positive-scoring molecules 3-fold increase, read-out: AK-based Prestwick Library Screening Results: A. baumannii (increase in extracellular AK activity)) was 1.1, the fold induction at 50 µM (E. coli; planktonic E. coli, 384-well, […], read-out: AK-based Prestwick Library Screening Results: E. coli (increase in extracellular AK activity)) was 1.3 and the fold induction at 50 µM (P. aeruginosa; planktonic P. aeruginosa, 384-well, cutoff for positive-scoring molecules 3-fold increase, read-out: AK-based Prestwick Library Screening Results: P. aeruginosa (increase in extracellular AK activity)) was 1. It also gave a fold induction at 50 µM (K. pneumoniae; planktonic K. pneumoniae, 384-well, cutoff for positive-scoring molecules 3-fold increase, read-out: AK-based Prestwick Library Screening Results: K. pneumoniae (increase in extracellular AK activity)) of 0.9, a fold induction at 50 µM ([2]; planktonic S. aureus, 384-well, cutoff for positive-scoring molecules 3-fold increase, read-out: AK-based Prestwick Library Screening Results: S. aureus (increase in extracellular AK activity)) of 0.7 and a fold induction at 50 µM (E. faecium; planktonic E. faecium, 384-well, cutoff for positive-scoring molecules 3-fold increase, read-out: AK-based Prestwick Library Screening Results: E. faecium (increase in extracellular AK activity)) of 1.1. The fold induction at 50 µM (E. cloacae; planktonic E. cloacae, 384-well, cutoff for positive-scoring molecules 3-fold increase, read-out: AK-based Prestwick Library Screening Results: E. cloacae (increase in extracellular AK activity)) was 1.4.
In the case of CCCCc1ccc2[nH]c(NC(=O)OC)nc2c1 [Parbendazole], the fold induction at 50 µM ([1]; planktonic A. baumannii, […], read-out: AK-based Prestwick library screening result, A. baumannii (fold increase in extracellular AK activity)) was 0.8, the fold induction at 50 µM (E. coli; planktonic E. coli, […], read-out: AK-based Prestwick library screening result, E. coli (fold increase in extracellular AK activity)) was 0.7 and the fold induction at 50 µM (P. aeruginosa; planktonic P. aeruginosa, […], read-out: AK-based Prestwick library screening result, P. aeruginosa (fold increase in extracellular AK activity)) was 0.7. The fold induction at 50 µM (K. pneumoniae; planktonic K. pneumoniae, […], read-out: AK-based Prestwick library screening result, K. pneumoniae (fold increase in extracellular AK activity)) was 0.7, the fold induction at 50 µM ([2]; planktonic S. aureus, […], read-out: AK-based Prestwick library screening result, S. aureus (fold increase in extracellular AK activity)) was 0.7 and the fold induction at 50 µM (E. faecium; planktonic E. faecium, […], read-out: AK-based Prestwick library screening result, E. faecium (fold increase in extracellular AK activity)) was 0.6. The fold induction at 50 µM (E. cloacae; planktonic E. cloacae, […], read-out: AK-based Prestwick library screening result, E. cloacae (fold increase in extracellular AK activity)) was 1.2.
Work on COCCOC(=O)C1=C(C)NC(C)=C(C(=O)OC(C)C)C1c1cccc([N+](=O)[O-])c1 (centres unmarked) [Nimodipine] yielded a fold induction at 50 µM ([1]; planktonic, cutoff for positive-scoring molecules 3-fold increase, read-out: AK-based Prestwick Library Screening Results, A. baumannii (fold increase in extracellular AK activity)) of 1, a fold induction at 50 µM (E. coli; planktonic, cutoff for positive-scoring molecules 3-fold increase, read-out: AK-based Prestwick Library Screening Results, E. coli (fold increase in extracellular AK activity)) of 0.9 and a fold induction at 50 µM (P. aeruginosa; planktonic, cutoff for positive-scoring molecules 3-fold increase, read-out: AK-based Prestwick Library Screening Results, P. aeruginosa (fold increase in extracellular AK activity)) of 0.9. The fold induction at 50 µM (K. pneumoniae; planktonic, cutoff for positive-scoring molecules 3-fold increase, read-out: AK-based Prestwick Library Screening Results, K. pneumoniae (fold increase in extracellular AK activity)) was 0.7, the fold induction at 50 µM ([2]; planktonic, cutoff for positive-scoring molecules 3-fold increase, read-out: AK-based Prestwick Library Screening Results, S. aureus (fold increase in extracellular AK activity)) was 0.7 and the fold induction at 50 µM (E. faecium; planktonic, cutoff for positive-scoring molecules 3-fold increase, read-out: AK-based Prestwick Library Screening Results, E. faecium (fold increase in extracellular AK activity)) was 1. The fold induction at 50 µM (E. cloacae; planktonic, cutoff for positive-scoring molecules 3-fold increase, read-out: AK-based Prestwick Library Screening Results, E. cloacae (fold increase in extracellular AK activity)) was 1.4.
CC(=O)Oc1ccc(C(c2ccc(OC(C)=O)cc2)c2ccccn2)cc1 [Bisacodyl] was tested, and the fold induction at 50 µM ([1]; planktonic A. baumannii, cutoff for positive-scoring molecules 3-fold increase, read-out: AK-based Prestwick Library Screening Results, A. baumannii (increase in extracellular AK activity)) was 0.8, the fold induction at 50 µM (E. coli; planktonic E. coli, cutoff for positive-scoring molecules 3-fold increase, read-out: AK-based Prestwick Library Screening Results, E. coli (increase in extracellular AK activity)) was 0.6 and the fold induction at 50 µM (P. aeruginosa; planktonic P. aeruginosa, cutoff for positive-scoring molecules 3-fold increase, read-out: AK-based Prestwick Library Screening Results, P. aeruginosa (increase in extracellular AK activity)) was 0.6. The fold induction at 50 µM (K. pneumoniae; planktonic K. pneumoniae, cutoff for positive-scoring molecules 3-fold increase, read-out: AK-based Prestwick Library Screening Results, K. pneumoniae (increase in extracellular AK activity)) was 0.6, the fold induction at 50 µM ([2]; planktonic S. aureus, cutoff for positive-scoring molecules 3-fold increase, read-out: AK-based Prestwick Library Screening Results, S. aureus (increase in extracellular AK activity)) was 0.5 and the fold induction at 50 µM (E. faecium; planktonic E. faecium, cutoff for positive-scoring molecules 3-fold increase, read-out: AK-based Prestwick Library Screening Results, E. faecium (increase in extracellular AK activity)) was 1. It also gave a fold induction at 50 µM (E. cloacae; planktonic E. cloacae, cutoff for positive-scoring molecules 3-fold increase, read-out: AK-based Prestwick Library Screening Results, E. cloacae (increase in extracellular AK activity)) of 0.9.
With CN1CCC(=C2c3ccccc3C=Cc3ccccc32)CC1 [Cyproheptadine hydrochloride] the fold induction at 50 µM ([1]; 384-well format, cutoff for positive-scoring molecules 3-fold increase, read-out: AK-based Prestwick Library Screening Results, A. baumannii (increase in extracellular AK activity)) was 0.9, the fold induction at 50 µM (E. coli; 384-well format, cutoff for positive-scoring molecules 3-fold increase, read-out: AK-based Prestwick Library Screening Results, E. coli (increase in extracellular AK activity)) was 0.9 and the fold induction at 50 µM (P. aeruginosa; 384-well format, cutoff for positive-scoring molecules 3-fold increase, read-out: AK-based Prestwick Library Screening Results, P. aeruginosa (increase in extracellular AK activity)) was 0.9. It also gave a fold induction at 50 µM (K. pneumoniae; 384-well format, cutoff for positive-scoring molecules 3-fold increase, read-out: AK-based Prestwick Library Screening Results, K. pneumoniae (increase in extracellular AK activity)) of 0.6, a fold induction at 50 µM ([2]; 384-well format, cutoff for positive-scoring molecules 3-fold increase, read-out: AK-based Prestwick Library Screening Results, S. aureus (increase in extracellular AK activity)) of 0.6 and a fold induction at 50 µM (E. faecium; 384-well format, cutoff for positive-scoring molecules 3-fold increase, read-out: AK-based Prestwick Library Screening Results, E. faecium (increase in extracellular AK activity)) of 0.9. It also gave a fold induction at 50 µM (E. cloacae; 384-well format, cutoff for positive-scoring molecules 3-fold increase, read-out: AK-based Prestwick Library Screening Results, E. cloacae (increase in extracellular AK activity)) of 0.9.
With CN1CCC2=C[C@H](O)[C@H]3OC(=O)c4cc5c(cc4[C@H]3[C@@H]21)OCO5 [Hippeastrine hydrobromide] the “AK-based Prestwick Library Screening Results, A. baumannii (fold increase in extracellular AK activity)” value [1, 3] was 0.8, the “AK-based Prestwick Library Screening Results, E. coli (fold increase in extracellular AK activity)” value (E. coli; [3]) was 0.9 and the “AK-based Prestwick Library Screening Results, P. aeruginosa (fold increase in extracellular AK activity)” value (P. aeruginosa; [3]) was 0.9. The “AK-based Prestwick Library Screening Results, K. pneumoniae (fold increase in extracellular AK activity)” value (K. pneumoniae; [3]) was 0.6, the “AK-based Prestwick Library Screening Results, S. aureus (fold increase in extracellular AK activity)” value [2, 3] was 0.7 and the “AK-based Prestwick Library Screening Results, E. faecium (fold increase in extracellular AK activity)” value (E. faecium; [3]) was 0.9. The “AK-based Prestwick Library Screening Results, E. cloacae (fold increase in extracellular AK activity)” value (E. cloacae; [3]) was 1.4.

From patent publication US10004701B2, “Methods and compositions for treating infection” (UNIVERSITY OF ROCHESTER, priority 2012, dated 2018)
